Reference: PubChem BioAssay (NCI)
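Step 1: Grow cells in 96-well plates. Step 2: Expose to compound for 48 hours at 5 concentrations. Step 3: Interpolate endpoints linearly; if unreached, use highest concentration. GI50: concentration for 50% inhibition of growth. TGI is the concentration that stops growth completely.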

What was measured:
Assay in all cases: inhibition of tumour cell growth, NCI panel, 48 h
DLD-1 colon = system: DLD-1 colon
DMS 114 small cell lung = system: DMS 114 small cell lung
DMS 273 small cell lung = system: DMS 273 small cell lung
HOP-18 NSCLC = system: HOP-18 NSCLC
DU-145 prostate = system: DU-145 prostate
MCF7 breast = system: MCF7 breast
PC-3 prostate = system: PC-3 prostate
T-47D breast = system: T-47D breast
NCI/ADR-RES ovarian = system: NCI/ADR-RES ovarian

Structure (SMILES)	TGI (DLD-1 colon)	TGI (DMS 114 small cell lung)	TGI (DMS 273 small cell lung)	TGI (HOP-18 NSCLC)	further results
CN(C)CCNC(=O)c1cccc2ccc(-c3ccncc3)nc12	31 µM	8.95 µM	7.76 µM	9.18 µM	–
Cc1cc(N(CCC#N)CCC#N)ccc1/C=C1\N=C(c2cc([N+](=O)[O-])ccc2Cl)N(c2cccc(Cl)c2)C1=O	> 100 µM	> 100 µM	> 100 µM	> 100 µM	–
COC1(OC)CC2OC1C1N=NN(C(=O)OC(C)(C)C)C21 (stereo not given)	> 100 µM	> 100 µM	> 100 µM	> 100 µM	–
CC(C)(C)c1cc(CCC(=O)Nc2ccc(Cl)cc2)nc(NC#N)n1	> 100 µM	–	> 100 µM	> 100 µM	–
COCCCNC(=O)C1C(=O)C(=O)N(CCCOC)C1=O (stereo not given)	> 100 µM	> 100 µM	> 100 µM	> 100 µM	–
O=C(CC1(O)C(=O)Nc2c(Cl)ccc(Cl)c21)c1ccc(F)cc1 (stereo not given)	> 100 µM	52.1 µM	> 100 µM	> 100 µM	–
O=C(CCN(C(=O)O)S(=O)(=O)c1ccc(NC(=O)c2ccccc2)cc1)NC1CCCCC1	> 100 µM	> 100 µM	> 100 µM	> 100 µM	–
COc1ccc2nc3c(C(=O)NCCN(C)C)cccc3nc2c1	> 1 µM	20.2 µM	23.8 µM	> 100 µM	–
CCOC(=O)/C(C#N)=C/c1[nH]c(C(=O)OCc2ccccc2)c(C)c1C	> 100 µM	> 100 µM	> 100 µM	> 100 µM	–
COc1ccc(NC(=O)CC(=O)N/N=C/c2ccc(N(CCC#N)S(C)(=O)=O)cc2)cc1	> 100 µM	> 100 µM	> 100 µM	> 100 µM	–
COc1ccc(N2C(=O)/C(=C/c3ccc(N(CCC#N)CCC#N)cc3C)N=C2c2cc([N+](=O)[O-])ccc2Cl)cc1	> 100 µM	> 23.5 µM	> 27 µM	> 100 µM	TGI (DU-145 prostate): 34.8 µM; TGI (MCF7 breast): > 46.4 µM; TGI (PC-3 prostate): > 46.4 µM; TGI (T-47D breast): > 100 µM
CC1CN1C(=O)NCCCCCCNC(=O)N1CC1C (stereo not given)	> 100 µM	98.3 µM	> 100 µM	> 100 µM	TGI (DU-145 prostate): > 100 µM; TGI (MCF7 breast): > 100 µM; TGI (NCI/ADR-RES ovarian): > 100 µM; TGI (PC-3 prostate): > 100 µM; TGI (T-47D breast): > 100 µM
O=[N+]([O-])c1ccc(C=NC2CCCCC2)cc1	> 100 µM	> 100 µM	> 100 µM	> 100 µM	–
NC(=O)COC(=O)c1c(Cl)nc2sccn12	> 100 µM	> 83.8 µM	> 100 µM	> 100 µM	–
CCCC1N2CCCCC2[C@@H]2c3[nH]c4ccccc4c3CCN12 (stereo not given in full)	> 100 µM	> 100 µM	> 100 µM	> 100 µM	–
Nc1cccc(S(=O)(=O)NCC(=O)O)c1	> 100 µM	> 100 µM	> 100 µM	> 100 µM	–

Structure (SMILES)	TGI (DLD-1 colon)	TGI (DMS 114 small cell lung)	TGI (DMS 273 small cell lung)	TGI (HOP-18 NSCLC)	further results
NC1=NC(c2ccccc2)CC(c2cc(Cl)ccc2O)=N1 (stereo not given)	25.9 µM	25.6 µM	25.6 µM	35.6 µM	–
C[C@@H]1OC(=O)N2CCCC(=C3SCCCS3)C12 (stereo not given in full)	–	> 100 µM	> 100 µM	> 100 µM	–
COc1ccc2c(c1)[n+](=O)c(C(=O)C/C(=N/OCCCc1ccccc1)C(=O)NC13CC4CC(CC(C4)C1)C3)c(C)n2[O-]	> 100 µM	> 100 µM	> 100 µM	> 100 µM	–
NC12CC3CC(C1)CC(C(=O)O)(C3)C2	> 100 µM	> 100 µM	> 100 µM	> 100 µM	–
COc1cc(Nc2nc3ccccc3nc2-c2cccs2)cc(OC)c1OC	> 100 µM	–	> 100 µM	> 100 µM	–
Cc1ccc(NC(=O)CC(=O)n2nc(C)c(N=Nc3ccccc3C(=O)O)c2C)cc1	> 100 µM	> 100 µM	> 100 µM	–	–
CCC[CH2][Sn]1([CH2]CCC)[O]C(=O)CN=Cc2c(ccc3ccccc23)[O]1	> 100 µM	0.299 µM	2.22 µM	1.52 µM	GI50 (DLD-1 colon): 0.811 µM; GI50 (DMS 114 small cell lung): 0.139 µM; GI50 (DMS 273 small cell lung): 1 µM; GI50 (HOP-18 NSCLC): 0.223 µM
CC(SC(=S)N1CCOCC1)c1cc2oc(=O)n(C)c2cc1Cl (stereo not given)	> 100 µM	> 100 µM	> 100 µM	> 100 µM	–
O=C(CCc1cc(-c2ccccc2)nc(=S)[nH]1)N(Cc1ccccc1)Cc1ccccc1	> 100 µM	> 100 µM	> 100 µM	> 100 µM	–
C/C(O)=C(\N=O)C(=O)Nc1ccc(Cl)cc1Cl	> 100 µM	> 100 µM	> 100 µM	> 100 µM	–
CCOCC(=O)N[C@H]1CCc2cc(OC)c(OC)c(OC)c2-c2ccc(OC)c(=O)cc21	> 100 µM	0.0289 µM	> 100 µM	> 100 µM	TGI (DU-145 prostate): 0.107 µM; TGI (MCF7 breast): > 100 µM; TGI (PC-3 prostate): > 100 µM; TGI (T-47D breast): > 100 µM
Nc1c(-c2ccc(Cl)cc2)[n+]([O-])c2ccccc2[n+]1[O-]	> 100 µM	> 100 µM	> 100 µM	> 100 µM	–
CNC(=O)C1CCc2nnc(-c3ccccc3)n21 (stereo not given)	> 100 µM	> 100 µM	> 100 µM	> 100 µM	–
O/N=C/c1ncccc1C1OCCO1	> 100 µM	> 100 µM	> 100 µM	> 100 µM	–
N#C/C(=C\c1ccc2ccccc2c1)c1ccccc1	> 100 µM	–	35.8 µM	> 100 µM	–
Cc1c(C(=O)C/C(=N/NC(=O)C[N+](C)(C)C)C(=O)Nc2ccc(Cl)cc2)[n+](=O)c2ccccc2n1O	> 100 µM	> 100 µM	> 100 µM	> 100 µM	–
